We go through six compounds from US20060293249A1, “Porphyrin derivatives” (PhotoBiotics Limited, priority 2002, published 2006).

Like-named read-outs stand apart in the source and are kept apart here.

Data set [1] in a line: Solubility remark in synthesis. The data set is classed as physicochemical.
For data set [2] the following is noted: in toluene; known standard value; cited from earlier work.
Data set [3] can be described thus: Determination of singlet oxygen quantum yields (phosphorescence at 1270 nm following laser excitation, relative to reference standard). The data set is classed as physicochemical. On the procedure: Air equilibrated solutions of the sensitisers were optically matched at the laser excitation wavelength along with that of the reference standard whose singlet oxygen quantum yield is known. Singlet oxygen generation is detected by its phosphorescence at 1270 nm following laser excitation. At each laser intensity the recorded phosphorescence trace was obtained by signal averaging 10 single shots. A linear regression between the signal amplitude and the laser intensity is carried out with the aim of calculating the slope of the straight line and since the gradient is proportional to the singlet oxygen quantum yield, by comparison with the gradient obtained for the standard, the singlet oxygen quantum yield for the sample can calculated using: φ=φstandard×(slopesample/slopestandard)×(absorptionsample/absorptionstandard)
This is a comparative method where the value obtained for φ is relative to that of a known standard. The quality of the results obtained are heavily dependent on the quality of the standard, which should be freshly prepared before measurements.

The conditions of data set [4]: compounds known in the art; cited from earlier work.

With “5-Nonane-10,15,20-triiodo-porphyrin [[18]]”, the solubility entry in data set [1] is listed as “limited solubility”. Regarding “5-Pentane-10,15,20-triiodo-porphyrin [[30]]”, in data set [1], the solubility result is listed as “limited solubility”. Still for that read-out and setting: under `C[Si](C)(C)CCOC(=O)c1ccc(OCCCCCc2c3nc(c(I)c4ccc([nH]4)c(I)c4nc(c(I)c5ccc2[nH]5)C=C4)C=C3)cc1` [[9], 5-[5-(2′-(trimethylsilyl)ethyl-4-hydroxybenzoate)pentane]-10,15,20-triiodo-porphyrin] stands “limited solubility”. Regarding `C=Cc1c(C)c2cc3nc(c4c5[n-]c(cc6nc(cc1[n-]2)C(C)=C6CC)c(C)c5C(=O)[C@@H]4C(=O)OC)[C@@H](CCC(=O)OC/C=C(\C)CCC[C@H](C)CCC[C@H](C)CCCC(C)C)[C@@H]3C.[Mg+2]` [chlorophyll A], the “singlet oxygen quantum yield of reference standard” value in data set [2] is given as 0.6. “Zinc5-[5-(2′-(trimethylsilyl)ethyl-4-hydroxybenzoate)pentane]-10,15,20-tri-2-ethynylpyridine-porphyrin [Compound [11]]”: the “singlet oxygen quantum yield” value in data set [3] was “around 0.81”; in data set [3] (in toluene), 0.8109. Regarding “disulfonated aluminium phthalocyanine [AIPCS2]”, in data set [4], the “singlet oxygen quantum yield” value is 0.3.
